Results from patent publication US10959432B2, “Microbiocidal oxadiazole derivatives” (Syngenta Participations AG, priority 2016, dated 2021).

Columns and labels:
[1] = tested on: Puccinia recondita f. sp. tritici; experiment: Fungicidal activity against Puccinia recondita f. sp. tritici / wheat / leaf disc preventative (brown rust); format: in vivo; conditions: foliar, 200 ppm in the applied formulation, wheat leaf segments cv. Kanzler, preventative (inoculated 1 day after application), assessed 7 to 9 days after application, read-out: disease control compared to untreated control leaf disks
Summary of the method: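 Wheat cv. Kanzler leaf segments on agar sprayed with formulated compound diluted in water, inoculated with P. recondita spores 1 day later. Incubated at 19C, 75% rh, 12 h light/12 h dark; scored 7 to 9 days after application as percent disease control versus untreated segments. Test rate 200 ppm.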

[2] = tested on: Puccinia recondita f. sp. tritici; experiment: Fungicidal activity against Puccinia recondita f. sp. tritici / wheat / leaf disc curative (brown rust); format: in vivo; conditions: foliar, 200 ppm in the applied formulation, wheat leaf segments cv. Kanzler, curative (applied 1 day after inoculation), assessed 6 to 8 days after application, read-out: disease control compared to untreated control leaf disks
Summary of the method: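 Wheat cv. Kanzler leaf segments on agar, spore-inoculated, held dark at 19° C./75% RH; formulated compound in water sprayed 1 day post-inoculation (curative). Incubated 19° C., 75% RH, 12 h light/12 h dark; percent disease control vs untreated scored 6 to 8 days after application.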

[3] = tested on: Phakopsora pachyrhizi; experiment: Fungicidal activity against Phakopsora pachyrhizi / soybean / leaf disc preventative (Asian soybean rust); format: in vivo; conditions: foliar, 200 ppm in the applied formulation, soybean leaf disks, preventative (inoculated one day after application), assessed 12 to 14 days after application, read-out: disease control compared to untreated control leaf disks
Summary of the method: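 Soybean leaf discs on water agar sprayed with formulated compound diluted in water; spore suspension sprayed on lower leaf surface one day later. Incubated 24-36 h dark at 20° C, 75% rh, then 20° C, 12 h light/day, 75% rh. Percent disease control versus untreated scored 12 to 14 days after application.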

[4] = tested on: Glomerella laqenarium (Colletotrichum lagenarium); experiment: Fungicidal activity against Glomerella lagenarium (Colletotrichum lagenarium) liquid culture / cucumber / preventative (anthracnose); format: cell-based; conditions: Colletotrichum orbiculare; 20 ppm in the applied formulation; liquid culture in PDB, 24° C., 3 to 4 days after application; read-out: disease control compared to untreated control (inhibition of growth measured photometrically)
Summary of the method: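 Cryostored conidia mixed into potato dextrose broth and added to test compound (from DMSO solution) in microtiter plates. Incubated at 24 °C; growth inhibition read photometrically 3 to 4 days after application, as percent activity versus untreated check.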

CC(C)CN(C)C(=O)c1ccc(-c2noc(C(F)(F)F)n2)cc1 [Compound 3a.13, N-isobutyl-N-methyl-4-[5-(trifluoromethyl)-1,2,4-oxadiazol-3-yl]benzamide]
≥ 80%: pest or weed control at 200 ppm [1] | pest or weed control at 200 ppm [2] | pest or weed control at 200 ppm [3] | inhibition at 20 ppm [4]

CCCCN(C)C(=O)c1ccc(-c2noc(C(F)(F)F)n2)cc1F [Compound 3b.38, N-butyl-2-fluoro-N-methyl-4-[5-(trifluoromethyl)-1,2,4-oxadiazol-3-yl]benzamide]
≥ 80%: pest or weed control at 200 ppm [1] | pest or weed control at 200 ppm [2] | pest or weed control at 200 ppm [3] | inhibition at 20 ppm [4]

CCC(O)CNC(=O)c1ccc(-c2noc(C(F)(F)F)n2)cc1 (stereo not drawn) [Compound 3a.14, N-(2-hydroxybutyl)-4-[5-(trifluoromethyl)-1,2,4-oxadiazol-3-yl]benzamide]
≥ 80%: pest or weed control at 200 ppm [1] | pest or weed control at 200 ppm [2] | pest or weed control at 200 ppm [3] | inhibition at 20 ppm [4]

CCCCN(C)C(=O)c1ccc(-c2noc(C(F)(F)F)n2)cc1 [Compound 3a.36, N-butyl-N-methyl-4-[5-(trifluoromethyl)-1,2,4-oxadiazol-3-yl]benzamide]
≥ 80%: pest or weed control at 200 ppm [1] | pest or weed control at 200 ppm [2] | pest or weed control at 200 ppm [3] | inhibition at 20 ppm [4]

CCOCCCNC(=O)c1ccc(-c2noc(C(F)(F)F)n2)cc1 [Compound 3a.22, N-(3-ethoxypropyl)-4-[5-(trifluoromethyl)-1,2,4-oxadiazol-3-yl]benzamide]
≥ 80%: pest or weed control at 200 ppm [1] | pest or weed control at 200 ppm [2] | pest or weed control at 200 ppm [3] | inhibition at 20 ppm [4]

CC(C)CN(C)C(=O)c1ccc(-c2noc(C(F)(F)F)n2)cc1F [Compound 3b.14, 2-fluoro-N-isobutyl-N-methyl-4-[5-(trifluoromethyl)-1,2,4-oxadiazol-3-yl]benzamide]
≥ 80%: pest or weed control at 200 ppm [1] | pest or weed control at 200 ppm [2] | pest or weed control at 200 ppm [3] | inhibition at 20 ppm [4]

O=C(NCC1CC1)c1ccc(-c2noc(C(F)(F)F)n2)cc1Cl [Compound 2b.13, 2-chloro-N-(cyclopropyl-methyl)-4-[5-(trifluoromethyl)-1,2,4-oxadiazol-3-yl]benzamide]
≥ 80%: pest or weed control at 200 ppm [1] | pest or weed control at 200 ppm [2] | pest or weed control at 200 ppm [3] | inhibition at 20 ppm [4]

CCN(CC)C(=O)c1ccc(-c2noc(C(F)(F)F)n2)cc1F [Compound 3b.32, N,N-diethyl-2-fluoro-4-[5-(trifluoromethyl)-1,2,4-oxadiazol-3-yl]benzamide]
≥ 80%: pest or weed control at 200 ppm [1] | pest or weed control at 200 ppm [2] | pest or weed control at 200 ppm [3] | inhibition at 20 ppm [4]

CCOC(C)CNC(=O)c1ccc(-c2noc(C(F)(F)F)n2)cc1F (stereo not drawn) [Compound 3b.12, N-(2-ethoxypropyl)-2-fluoro-4-[5-(trifluoromethyl)-1,2,4-oxadiazol-3-yl]benzamide]
≥ 80%: pest or weed control at 200 ppm [1] | pest or weed control at 200 ppm [2] | pest or weed control at 200 ppm [3] | inhibition at 20 ppm [4]

C#CCN(C)C(=O)c1ccc(-c2noc(C(F)(F)F)n2)cc1 [Compound 3a.41, N-methyl-N-prop-2-ynyl-4-[5-(trifluoromethyl)-1,2,4-oxadiazol-3-yl]benzamide]
≥ 80%: pest or weed control at 200 ppm [1] | pest or weed control at 200 ppm [2] | pest or weed control at 200 ppm [3] | inhibition at 20 ppm [4]

CC(C)(C)NC(=O)c1ccc(-c2noc(C(F)(F)F)n2)cc1 [Compound 3a.32, N-tert-butyl-4-[5-(trifluoromethyl)-1,2,4-oxadiazol-3-yl]benzamide]
≥ 80%: pest or weed control at 200 ppm [1] | pest or weed control at 200 ppm [2] | pest or weed control at 200 ppm [3] | inhibition at 20 ppm [4]

O=C(NCCCCO)c1ccc(-c2noc(C(F)(F)F)n2)cc1 [Compound 3a.24, N-(4-hydroxybutyl)-4-[5-(trifluoromethyl)-1,2,4-oxadiazol-3-yl]benzamide]
≥ 80%: pest or weed control at 200 ppm [1] | pest or weed control at 200 ppm [2] | pest or weed control at 200 ppm [3] | inhibition at 20 ppm [4]

CCOCCNC(=O)c1ccc(-c2noc(C(F)(F)F)n2)cc1F [Compound 3b.39, N-(2-ethoxyethyl)-2-fluoro-4-[5-(trifluoromethyl)-1,2,4-oxadiazol-3-yl]benzamide]
≥ 80%: pest or weed control at 200 ppm [1] | pest or weed control at 200 ppm [2] | pest or weed control at 200 ppm [3] | inhibition at 20 ppm [4]

CC(C)CCNC(=O)c1ccc(-c2noc(C(F)(F)F)n2)cc1F [Compound 3b.41, 2-fluoro-N-isopentyl-4-[5-(trifluoromethyl)-1,2,4-oxadiazol-3-yl]benzamide]
≥ 80%: pest or weed control at 200 ppm [1] | pest or weed control at 200 ppm [2] | pest or weed control at 200 ppm [3] | inhibition at 20 ppm [4]

CN(C(=O)c1ccc(-c2noc(C(F)(F)F)n2)cc1F)C(C)(C)C [Compound 3b.37, N-tert-butyl-2-fluoro-N-methyl-4-[5-(trifluoromethyl)-1,2,4-oxadiazol-3-yl]benzamide]
≥ 80%: pest or weed control at 200 ppm [1] | pest or weed control at 200 ppm [2] | pest or weed control at 200 ppm [3] | inhibition at 20 ppm [4]

CCOC(C)CNC(=O)c1ccc(-c2noc(C(F)(F)F)n2)cc1 (stereo not drawn) [Compound 3a.11, N-(2-ethoxypropyl)-4-[5-(trifluoromethyl)-1,2,4-oxadiazol-3-yl]benzamide]
≥ 80%: pest or weed control at 200 ppm [1] | pest or weed control at 200 ppm [2] | pest or weed control at 200 ppm [3] | inhibition at 20 ppm [4]

CC(C)OCCNC(=O)c1ccc(-c2noc(C(F)(F)F)n2)cc1 [Compound 3a.40, N-(2-isopropoxyethyl)-4-[5-(trifluoromethyl)-1,2,4-oxadiazol-3-yl]benzamide]
≥ 80%: pest or weed control at 200 ppm [1] | pest or weed control at 200 ppm [2] | pest or weed control at 200 ppm [3] | inhibition at 20 ppm [4]

CCN(C(=O)c1ccc(-c2noc(C(F)(F)F)n2)cc1)C(C)C [Compound 3a.34, N-ethyl-N-isopropyl-4-[5-(trifluoromethyl)-1,2,4-oxadiazol-3-yl]benzamide]
≥ 80%: pest or weed control at 200 ppm [1] | pest or weed control at 200 ppm [2] | pest or weed control at 200 ppm [3] | inhibition at 20 ppm [4]

CC(=O)CC(C)(C)NC(=O)c1ccc(-c2noc(C(F)(F)F)n2)cc1F [Compound 3b.15, N-(1,1-dimethyl-3-oxo-butyl)-2-fluoro-4-[5-(trifluoromethyl)-1,2,4-oxadiazol-3-yl]benzamide]
≥ 80%: pest or weed control at 200 ppm [1] | pest or weed control at 200 ppm [2] | pest or weed control at 200 ppm [3] | inhibition at 20 ppm [4]

C=C(C)CN(CC)C(=O)c1ccc(-c2noc(C(F)(F)F)n2)cc1 [Compound 3a.31, N-ethyl-N-(2-methylallyl)-4-[5-(trifluoromethyl)-1,2,4-oxadiazol-3-yl]benzamide]
≥ 80%: pest or weed control at 200 ppm [1] | pest or weed control at 200 ppm [2] | pest or weed control at 200 ppm [3] | inhibition at 20 ppm [4]

COCCN(C)C(=O)c1ccc(-c2noc(C(F)(F)F)n2)cc1F [Compound 3b.19, 2-fluoro-N-(2-methoxyethyl)-N-methyl-4-[5-(trifluoromethyl)-1,2,4-oxadiazol-3-yl]benzamide]
≥ 80%: pest or weed control at 200 ppm [1] | pest or weed control at 200 ppm [2] | pest or weed control at 200 ppm [3] | inhibition at 20 ppm [4]
